Laboratory results: article PMC7926793, “Synthesis and Biological Evaluation of 1-(Diarylmethyl)-1H-1,2,4-triazoles and 1-(Diarylmethyl)-1H-imidazoles as a Novel Class of Anti-Mitotic Agent for Activity in Breast Cancer” (Pharmaceuticals, 2021)

Experiments:
[1] = tested on: MCF-7 human breast cancer cells; assay: alamarBlue cell viability assay; assay type: cell-based; details: Homo sapiens, MCF7, 72 h, read-out: cell viability (viable cells)
Procedure: The human breast carcinoma cell line MCF-7 was purchased from the European Collection of Animal Cell Cultures (ECACC) and cultured in Eagles minimum essential medium with 10% foetal bovine serum, 2 mM L-glutamine, and 100 μg/mL penicillin/streptomycin. The medium was supplemented with 1% non-essential amino acids. The human breast carcinoma cell line MDA-MB-231 was purchased from the ECACC. MDA-MB-231 cells were maintained in Dulbecco’s modified Eagle’s medium (DMEM) supplemented with 10% (v/v) foetal bovine serum, 2 mM L-glutamine, and 100 μg/mL penicillin/streptomycin (complete medium). HL-60 cells were derived from a patient with acute myeloid leukaemia and were obtained from the ECACC (Salisbury, UK). Cells were cultured in RPMI-1640 Glutamax medium supplemented with 10% FCS media and 100 μg/mL penicillin/streptomycin. MCF-10A cells were obtained as a kind gift from Dr Susan McDonnell, School of Chemical and Bioprocess Engineering, University College Dublin and were cultured in Dulbecco’s Modified Eagle Medium: Nutrient Mixture F-12 (DMEM/F12; Gibco) supplemented with 5% horse serum (Invitrogen), 20 ng mL^−1 epidermal growth factor (Merck Millipore), 0.5 μg mL^−1 hydrocortisone (Sigma,-Aldrich, Arklow, Co. Wicklow, Ireland), 100 ng mL^−1 cholera toxin (Sigma, Aldrich, Arklow, Co. Wicklow, Ireland), 10 μg mL^−1 insulin (Sigma, Aldrich, Arklow, Co. Wicklow, Ireland), and penicillin/streptomycin 5000 U mL^−1 (1%)(Gibco, Biosciences, 3 Charlemont Terrace, Crofton Road, Dun Laoghaire, Co Dublin, A96 K7H7, Ireland). Cells were maintained at 37 °C in 5% CO2 in a humidified incubator. All cells were sub-cultured 3 times/week by trypsinisation using TrypLE Express (1×).
Cells were seeded at a density of 2.5 × 10^4 cells/well (MCF-7, MDA-MB-231, MCF-10A cells) and 1 × 10^4 cells/well (HL-60) in 96-well plates (200 μL per well). After 24 h, cells were then treated with either medium alone, vehicle control (1% ethanol (v/v)) or with serial dilutions of CA-4 (4a), phenstatin (7a) or selected compounds (0.001–100 μM) in triplicate. Cell proliferation for MCF-7, MDA-MB-231, and MCF-10A cells was analysed using the alamarBlue assay (Invitrogen Corp.) according to the manufacturer’s instructions. After 67–69 h, alamarBlue (10% (v/v)) was added to each well, and plates were incubated for 3–5 h at 37 °C in the dark. Fluorescence was read using a 96-well fluorimeter with excitation at 530 nm and emission at 590 nm. Results were expressed as percentage viability relative to vehicle control (100%).

MCF-7 cells [2] = assay: cell cycle analysis, PI staining, flow cytometry; assay type: cell-based, human; details: 1 μM
Procedure: The cells were collected by trypsinisation and centrifuged at 800× g for 15 min. Cells were washed twice with ice-cold phosphate-buffered saline (PBS) and fixed in ice-cold 70% ethanol overnight at −20 °C.

MCF-7 cells [3] = assay: Annexin V/PI apoptotic assay; assay type: cell-based, human; details: for Annexin V-stained positive cells (total apoptotic cells): 48 h
Procedure: (§1) Apoptotic cell death was detected by flow cytometry using Annexin V and propidium iodide (PI). MCF-7 and MDA-MB-231 cells were seeded in 6-well plates at a density of 1 × 10^5 cells/mL (3 mL) and treated with either vehicle (0.1% (v/v) EtOH), Phenstatin (7a), or 21l at different concentrations for the selected time. Then, cells were harvested and prepared for flow cytometric analysis. […] Then, cells were washed once in binding buffer and then re-suspended in PI-containing binding buffer (1:1000). […] Four populations are produced during the assay: Annexin V and PI negative (Q4, healthy cells), Annexin V positive and PI negative (Q3, early apoptosis), Annexin V and PI positive (Q2, late apoptosis), and Annexin V negative and PI positive (Q1, necrosis).

MDA-MB-231 cells = assay: Annexin V/PI apoptotic assay; assay type: cell-based, human; details: for total apoptotic cells: 48 h
Procedure: as §1

[4] = tested on: purified bovine brain tubulin; assay: tubulin polymerisation assay; assay type: biochemical; details: 10 μM
Procedure: The assembly of purified bovine tubulin was monitored using a kit, BK006, purchased from Cytoskeleton Inc. (Denver, CO, USA). […] Light is scattered proportionally to the concentration of polymerised microtubules in the assay. Therefore, tubulin assembly was monitored turbidimetrically at 340 nm in a Spectramax 340 PC spectrophotometer (Molecular Devices, Sunnyvale, CA, USA). The absorbance was measured at 30 s intervals for 60 min.

[5] = tested on: tubulin (microtubule network) in MCF-7 cells; assay: immunofluorescence confocal microscopy of microtubule network; assay type: cell-based, human; details: 1 μM, 16 h
Procedure: Confocal microscopy was used to study the effects of drug treatment on MCF-7 cytoskeleton. For immunofluorescence, MCF-7 cells were seeded at 1 × 10^5 cells/mL on eight chamber glass slides (BD Biosciences). […] Following treatment, cells were gently washed in PBS, fixed for 20 min with 4% paraformaldehyde in PBS, and permeabilised in 0.5% Triton X-100. Following washes in PBS containing 0.1% Tween (PBST), cells were blocked in 5% bovine serum albumin diluted in PBST. […] Following washes in PBST, the cells were mounted in Ultra Cruz Mounting Media (Santa Cruz Biotechnology, Santa Cruz, CA) containing 4,6-diamino-2-phenolindol dihydrochloride (DAPI). Images were captured by Leica SP8 confocal microscopy with Leica application suite X software. All images in each experiment were collected on the same day using identical parameters. Experiments were performed on three independent occasions.

[6] = tested on: MCF-7 human breast cancer cells; details: MCF-7 section; read-out: IC50 of phenstatin positive control; cited from earlier work
[7] = tested on: MDA-MB-231 human breast cancer cells; set-up: method as in PMID 25721862; details: read-out: reported IC50 of phenstatin in MDA-MB-231 cells; cited from earlier work
HL-60 leukaemia cells = tested on: HL-60 leukaemia cells; set-up: method as in PMID 19647439; details: read-out: IC50 of phenstatin in HL-60; cited from earlier work
[8] = Homo sapiens, MCF7, 48 h, read-out: Viable
[9] = Homo sapiens, MDA-MB-231, 48 h, read-out: Viable

COc1ccc(C(=O)c2cc(OC)c(OC)c(OC)c2)cc1O [phenstatin, (3-Hydroxy-4-Methoxyphenyl)(3,4,5-Trimethoxyphenyl)Methanone, reference compound]
viability at 1 µM [1]: 30%
cells in the G2/M phase (MCF-7 cells [2]; 24 h): 65%
cells in the G2/M phase (MCF-7 cells [2]; 48 h): 49%
cells in the G2/M phase (MCF-7 cells [2]; 72 h): 51%
cells undergoing apoptosis (sub-G1) (MCF-7 cells [2]; 72 h): 18%
viability at 0.1 µM (MCF-7 cells [3]; [8]): 58.4%
viability at 0.5 µM (MCF-7 cells [3]; [8]): 50.7%
Annexin V-stained positive cells (total apoptotic cells) (MCF-7 cells [3]; MCF-7, 0.1 μM): 36.1%
Annexin V-stained positive cells (total apoptotic cells) (MCF-7 cells [3]; MCF-7, 0.5 μM): 46%
viability at 0.1 µM (MDA-MB-231 cells; [9]): 80.4%
viability at 0.5 µM (MDA-MB-231 cells; [9]): 80.6%
total apoptotic cells (MDA-MB-231 cells; MDA-MB-231, 0.1 μM): 16.6%
total apoptotic cells (MDA-MB-231 cells; MDA-MB-231, 0.5 μM): 17.9%
effect on tubulin polymerisation and assembly [4]: significant inhibition of tubulin polymerisation
effect on microtubule network of MCF-7 cells [5]: extensive depolymerisation of tubulin
IC50 [6]: 1.61 ± 2.7 nM
IC50 [7]: 1500 nM
IC50 (HL-60 leukaemia cells): 31 nM
